Experiments:
Assay type in all cases: in vivo, human
umami-taste [1] = assay: Sensory panel tasting of 0.3% NaCl solution; settings: Solution B: 0.3% NaCl and 10 ppm geranyl lactamide; trained sensory panel of 20 women; Solution A (0.3% NaCl only): salty
Protocol: Two solutions were prepared: A a solution of 0.3% NaCl B a solution of 0.3% NaCl and 10 ppm geranyl lactamide The samples were tasted by a trained sensory panel composed of 20 women aged between 30 and 60.

umami-taste [2] = assay: Sensory panel tasting of 0.3% NaCl and 0.03% MSG solution; settings: Solution B: 0.3% NaCl, 0.03% MSG and 10 ppm geranyl lactamide, trained sensory panel of 20 women, Solution A without compound: salty
Protocol: Two solutions were prepared: A a solution of 0.3% NaCl and 0.03% MSG B a solution of 0.3% NaCl, 0.03% MSG and 10 ppm geranyl lactamide The samples were tasted by a trained sensory panel composed of 20 women aged between 30 and 60.

umami-taste [3] = assay: Flavourist tasting of tomato soup; settings: tomato soup containing 15 ppm geranyl lactamide; flavourists (2 male, 2 female)
Protocol: A tomato soup mix was prepared from 9.4 g of sodium chloride, 1 g of mono sodium glutamate, 0.08 g ribonucleotides (ex yeast), 32 g of tomato powder (ex […]), 25.1 g of glucose, 21 g of starch (Ultrasperse 5 ex National Starch), 5 g of palm fat powder, 3 g of yeast powder, 1 g of onion powder, 0.15 g of carrot powder, 0.05 g of ground white pepper, 0.3 g of celery extract powder, 0.05 g of ground laurel leaf powder, and 1.85 g of sucrose. 25 G of the well mixed ingredients was added to 250 g of boiling water and stirred until completely dissolved. The reference soup was compared with a batch of the same soup containing 15 ppm of geranyl lactamide.

umami-taste [4] = assay: Sensory panel tasting of flavoured potato chips; settings: for taste description of potato chips: trained sensory panel of 20 women
Protocol: Plain potato chips were prepared. One part was flavoured with 1.2% sodium chloride (sample A) One part was flavoured with 1.2% sodium chloride and 0.3% mono sodium glutamate (sample b) One part was flavoured with 1.2% sodium chloride and 25 ppm geranyl lactamide (sample C). The samples were tasted by a trained sensory panel composed of 20 women aged between 30 and 60.

umami-taste [5] = assay: Flavourist tasting of tomato ketchup; settings: tomato ketchup with 20 ppm geranyl lactamide; flavourists (2 male, 2 female)
Protocol: A tomato ketchup was prepared from 19% tomato paste (28-30% dry weight), 8% of vinegar (15%), 3% of sodium chloride, 20% of sugar and 50% of water. To one half of the batch was added 20 ppm of geranyl lactamide.

Structure (SMILES): CC(C)=CCC/C(C)=C/CNC(=O)C(C)O (stereo not shown) [geranyl lactamide]
- taste description (findings of the panel) (umami-taste [1]): salty, umami
- taste description (findings of the panel) (umami-taste [2]): salty, umami, more bouillon-like, more complex, less sweet
- taste of test soup compared with reference soup (umami-taste [3]): more umami, had a long-lasting savoury aspect, was more salty and was more complex than the base soup
- panel preference among potato chip samples (umami-taste [4]; sample C (1.2% sodium chloride and 25 ppm geranyl lactamide) vs sample A (NaCl) and sample B (NaCl and 0.3% MSG)): preferred over the other two samples
- taste description of potato chips (umami-taste [4]; sample C: 1.2% sodium chloride and 25 ppm geranyl lactamide): salty, umami, long lasting, savoury, bouillon
- taste of test ketchup compared with base ketchup (umami-taste [5]): clearly more umami, more salty and had a pleasant savoury note

Structure (SMILES): N[C@@H](CCC(=O)O)C(=O)[O-].[Na+] [mono sodium glutamate, reference compound]
- taste description of potato chips (umami-taste [4]; sample B: 1.2% sodium chloride and 0.3% mono sodium glutamate): salty and umami

Reference: patent US8815321B2, “Geranylamine derivatives as flavouring agents” (Givaudan S.A., priority 2009, dated 2014)
